Source: US20080280860A1, “Use of Vitamin D Compounds to Treat Endometriosis” (BioXell S.p.A., priority 2005, published 2008)

Tests used:
[1] = tested on: Ectopic endometrium stromal cells; assay: Proliferation of endometrial stromal cells in vitro (CyQuant), ectopic; format: cell-based; conditions: 1 uM-0.1 nM, 48-96 hours; FIG. 2B; may be dose dependent
Procedure: Tissue was gently minced into small pieces (1 to 2 mm^3) and incubated at 37° C. for 1 h with 0.1% type A collagenase. At the end of the incubation, single stromal cells were separated from large clumps of epithelium by a 10 min. period of differential sedimentation at unity gravity. The top 8 ml of medium, containing predominantly stromal cells, were then slowly removed and the cells were collected by centrifugation. The stromal-enriched fraction was washed twice in culture medium and allowed to adhere selectively to tissue culture dishes for 15 min.
Thereafter, nonattached epithelial cells still present were removed and a purified stromal preparation was obtained on the surface of the culture dishes.
The cells were maintained in DMEM supplemented with 10% Fetal Bovine Serum (SIGMA) and 100 U/ml penicillin, 100 ug/ml streptomycin (GIBCO cat. no. 15140-122).
When the stromal cells were grown to confluence, were washed in PBS and then trypsinized using 1× trypsin/EDTA solution (PromoCell cat. no. C-41002). […] The proliferation was determined with CyQuant Cell Proliferation Assay (Molecular Probe cat. no. C7026). […]
The fluorescence was determined using a fluorescence microplate reader with filters appropriate for ˜480 nm excitation and ˜520 nm emission.

endometriotic lesions = assay: In vivo model of endometriosis (lesion weight); parameters: species or system Balb/c mice
Procedure: Balb/c donor mice were injected with estrogen (Estradiol AMSA; 3 ug/mouse) and one week later were sacrificed and the uterus was removed, the two horns isolated and reduced to small fragments. The fragments derived from the isolated uterine horns were resuspended in saline with ampicillin (1 mg/ml) and then injected into the peritoneum of two recipient Balb/c mice, previously anesthesized, through a 0.5 cm incision in the abdominal wall. […] Antibiotic (ampicillin 1 mg/ml) was administered on the day of the surgery and on the day after. […] […] Lesions can be identified as translucid isolated or grouped cysts mainly found on the abdominal wall, on the pancreas, and around the uterus. In some cases the lesions are necrotic. The lesions were carefully removed and put on a glass slide to dry for 48 hours, and then were weighed. In other experiments lesions are transferred to a lysis solution and mRNA isolated for gene expression analysis. For immunohistochemical analysis, lesions were frozen immediately after isolation.
Balb/c donor mice were injected with estrogen (Estradiol AMSA; 3 ug/mouse) and one week later were sacrificed and the uterus was removed, the two horns isolated and reduced to small fragments. The fragments derived from the isolated uterine horns were resuspended in saline with ampicillin (1 mg/ml) and then injected into the peritoneum of two recipient Balb/c mice, previously anesthetised, through a 0.5 cm incision in the abdominal wall. Antibiotic (ampicillin 1 mg/ml) was administered on the day of the surgery and on the day after. […] Dosage levels of the test compounds were at the maximum tolerated levels for the compound in question, i.e. 1-alpha-fluoro-25-hydroxy-16,23E-diene-26,27-bishomo-20-epi-cholecalciferol (Compound A) 100 ug/kg, calcitriol (Compound B) 0.3 ug/kg and 1,25-dihydroxy-21-(3-hydroxy-3-methylbutyl)-19-nor-cholecalciferol (Compound C) 3 ug/kg.
(§1) […] Lesions can be identified as translucid isolated or grouped cysts mainly found on the abdominal wall, on the pancreas, and around the uterus. In some cases the lesions are necrotic. The lesions were carefully removed and put on a glass slide to dry for 48 hours, and then were weighed.
Balb/c donor mice were injected with estrogen (Estradiol AMSA; 3 ug/mouse) and one week later were sacrificed and the uterus was removed, the two horns isolated and reduced to small fragments. The fragments derived from the isolated uterine horns were resuspended in saline with ampicillin (1 mg/ml) and then injected into the peritoneum of recipient Balb/c mice, previously anesthetised, through a 0.5 cm incision in the abdominal wall. Antibiotic (ampicillin 1 mg/ml) was administered on the day of the surgery and on the day after. […]
as §1, with “weighed. At least 10 test animals were used in each group.” for “weighed.”
Further experiments were performed using Compound A at 100 ug/kg but varying the time at which administration of the vitamin D compound was initiated and the time point at which administration was ceased. Specifically: (i) administration for 1 week prior to injection of the uterine fragments (ii) administration for 2 weeks subsequent to injection of the uterine fragments (iii) administration for 1 week prior and 2 weeks subsequent to injection of the uterine fragments (iv) administration for 2 weeks, initiated two days subsequent to injection of the uterine fragments (v) administration for 2 weeks, initiated two weeks subsequent to injection of the uterine fragments. In these experiments, subjects were sacrificed at the later of two weeks post injection or the end of the treatment period as appropriate.

[2] = Example 3 dose/response, ip once a day, 5 days a week for two weeks, FIG. 7

Structure (SMILES): C=C1/C(=C\C=C2/CCC[C@]3(C)C([C@@H](C)C/C=C/C(O)(CC)CC)=CC[C@@H]23)C[C@@H](O)C[C@@H]1F [Compound A, 1-alpha-fluoro-25-hydroxy-16,23E-diene-26,27-bishomo-20-epi-cholecalciferol]
- cell proliferation, Ectopic endometrium [1]: reduction in cell proliferation
- reduction in lesion weight, group (v) (endometriotic lesions; 100 ug/kg, 2 weeks, initiated 2 weeks after uterus transfer, FIG. 8): 34%
- reduction in lesion weight, group (iv) (endometriotic lesions; 100 ug/kg, 2 weeks, initiated 2 days after uterus transfer, FIG. 8): 35%
- reduction in lesion weight, group (i) (endometriotic lesions; 100 ug/kg, administration for 1 week prior to injection of the uterine fragments, FIG. 8): 40%
- reduction in lesion weight, group (iii) (endometriotic lesions; 100 ug/kg, one week before and two weeks after uterus transfer, FIG. 8): 73%
- reduction in lesion weight, group (ii) (endometriotic lesions; 100 ug/kg, two weeks starting at the time of uterus transfer, FIG. 8): 48%
- lesion weight, treated versus control (vehicle only) (endometriotic lesions; Example 1, 100 ug/kg ip once a day, 5 days a week for two weeks, 17 pairs of mice, p=0.0034 paired, p=0.020 unpaired t test): significant reduction in lesion weight
- lesion weight reduction between paired animals (mean ± standard error) (endometriotic lesions; Example 2, 100 ug/kg ip once a day, 5 days a week for two weeks after uterus transfer, 24 mice per group): 51±11%
- mean lesion weight (endometriotic lesions; Example 2, 100 ug/kg ip, two weeks, miglyol control 8.452±1.039 mg): 3.527 ± 0.5400 mg
- reduction in lesion weight compared with the other compounds tested (endometriotic lesions; Example 2, each compound at its maximum tolerated level): most pronounced
- lesion weight, treated versus control (vehicle only), statistical analysis (endometriotic lesions; Example 2, each compound at its maximum tolerated level, ip once a day, 5 days a week for two weeks): significant reduction in lesion weight
- reduction in lesion weight at 1/10 MTD (endometriotic lesions; [2]): approximately 20%
- reduction in lesion weight at around ⅓ MTD (endometriotic lesions; [2]): approximately 35%
